The results in this text go back to patent publication US12692471B2, “High aspect ratio devices and methods for vitrification of biological samples by rapid cooling” (The General Hospital Corporation, priority 2020, dated 2026).

Data set [1] has as its system C. parvum oocysts. The data set is described as follows: Oocyst viability by propidium iodide (PI) exclusion, flow cytometry. The data set is classed as cell-based, Cryptosporidium parvum. The following applies: for viability (PI exclusion): pre-freeze, 50% DMSO, 20% bleach condition. The procedure: To increase the intracellular concentration of CPA, oocysts were bleached with various concentrations of bleach-5% or 20% and then incubated with CPA cocktails consisting of trehalose (Sigma) and DMSO (Sigma) at different concentrations. Briefly, bleached oocysts were first dehydrated in 1.6 M or 1 M trehalose solution for 10 min and then incubated for another 5-15 min with DMSO achieving its final concentration of 30% or 50% (ambient conditions were used throughout). The DMSO/trehalose cocktail was then diluted by incubation with excess PBS (at ratio 1:100) for 30 min at room temperature and removed by centrifugation (18,000×g, 2 min). Cytotoxicity attributable to the CPA cocktail was measured by inclusion of PI (Sigma) at 10 μg/mL using flow cytometry (ACCURI® C6, BD Life Sciences) and was normalized to its control in PBS for each condition.
In an effort to maximize the concentration of intracellular and extracellular CPA without compromising oocyst viability, oocysts were gradually exposed to higher concentrations of DMSO by two-step addition. Here, 6-week-old bleached oocysts (5% or 20%) were first dehydrated in 1.6 M trehalose for 10 min. DMSO was added to achieve 0.8 M trehalose/30% DMSO solution and incubated for 5 min. The second addition of DMSO led to a final concentration of 0.5 M trehalose/50% DMSO and was incubated for 1 min. CPA cocktail was then diluted as described above. Cytotoxicity attributable to CPA cocktail was measured by inclusion of PI and was normalized to the untreated oocyst control in PBS.
(§1) Bleached (20%) C. parvum oocysts at 1-2, 6 and 12 weeks of age were cryopreserved as described above using a two-step DMSO addition protocol, such that final concentration of 0.5 M trehalose/50% DMSO was achieved. […] Pre-freeze and post-freeze oocyst viability was measured by PI exclusion at 10 μg/mL using flow cytometry and by an in vitro infectivity assay. […]
For evaluation of cryopreservation in insemination straws and cryovials, pre-freeze and post-freeze viability was measured only by PI exclusion as described above.
A general note: In flow cytometry, cells or beads pass a laser one at a time.

Data set [2] deals with C. parvum oocysts. Description: In vitro infectivity of oocysts in MDBK cells. The data set is classed as cell-based, Cryptosporidium parvum. As to the method: All CPA cocktails described in FIG. 2A were further tested for infectivity in the in vitro model of epithelial cell infection using MDBK cells. Twenty thousand cells were seeded into each well of a 96-well culturing plate (Falcon) and maintained for two days to reach confluence (defined at 4×10^4/well). Oocysts were prepared for infection by bleaching and incubation with CPA cocktail as described above. After removal of diluted CPA in excess PBS, the oocyst pellet was resuspended in 50 μL of 0.75% sodium taurocholate (Sigma) and incubated at 37° C. for 15 min to prompt excystation. Pre-excysted oocysts were then added onto confluent cell monolayers at MOI 1:3. After 24-h co-incubation of parasite with cell monolayer, cultures were washed with PBS to remove extracellular stages of parasite, permeabilized with 100% methanol for 10 min at room temperature and then washed again with PBS. After fixation, cells were blocked with 10% FBS for 30 min and then incubated with fluorescein-labeled Vicia villosa lectin (Vector Laboratories) at concentration […] for 30 min to visualize intracellular stages of the parasite. After the final wash with PBS, monolayers were inspected with a Nikon ECLIPSE® Ti-E microscope (Nikon Instruments Inc.). Four images were taken of each well at 200× magnification using a FITC filter at 100 ms exposure. The number of fluorescing infection foci was then counted by ImageJ 1.48v particle analyzer using the following settings: triangle threshold 15-255, size exclusion at 10-1,000 pixel^2 and circularity at 0.1-1.0. Results depicted in FIG. 2B are expressed as percent infectivity of the control oocysts, which were treated with PBS in place of CPA.
as §1

Data set [3] concerns IFN-γ knockout mice. The data set is described as follows: In vivo infectivity of cryopreserved oocysts. The procedure: C. parvum oocysts at 2, 6 and 12 weeks of age were bleached (20%) and cryopreserved in the vitrification cassettes as described above using a two-step DMSO addition protocol with final concentration of 0.5 M trehalose/50% DMSO. Infectivity of cryopreserved oocysts was evaluated in 8-week-old female IFN-γ knockout mice bred under pathogen-free conditions (Jackson Laboratory, Bar Harbor, ME, USA). All mice experiments were conducted in an AAALAC accredited institution in compliance with the study protocol No. G2017-107 approved by the Tufts University Institutional Animal Care and Use Committee in accordance with the Guide for the Care and Use of Laboratory Animals (National Research Council). Mice were randomly assigned into groups of three by a blinded animal caretaker, however the investigators were not blinded during this experiment.
The animal care, inoculation and monitoring procedures were performed as described elsewhere (Jaskiewicz et al., Cryopreservation of infectious Cryptosporidium parvum oocysts. Nat. Commun. 9, 2883 (2018)), with modifications. Mice were immunosuppressed throughout the course of the experiment by administration of dexamethasone in drinking water at concentration 10 mg/L. Three days after immunosuppressive treatment started, each mouse received 30,000 PI^− cryopreserved oocysts in PBS suspension by oral gavage. […] Mice negative for signs of infection were monitored until 11 DPI. Intensity of fecal shedding was measured daily by inspection of the acid-fast stained fecal smear slides, prepared from a single fecal pellet of approximately equal size, for presence of oocysts in 30 fields (1000×).
The animal experiments which produced negative cryopreservation outcome were performed as described above with exception of few procedural details. A summary table describing the different cryopreservation methods evaluated and the corresponding outcome can be found in Table 1. […]

The mark [4] stands for this setting: 30% DMSO 5 min then 50% DMSO 1 min, compared with one-step at same overall concentration.

Consider `C[S+](C)[O-]` [DMSO, dimethyl sulfoxide], for which the “pre-freeze viability, two-step vs one-step DMSO addition” value in data set [1] (setting [4]) is given as “significantly increased”. Also, the figures for the “viability (PI exclusion)” value in data set [1] (5 min incubation) and in data set [1] (after 15 min or longer) were 59.4±2.3% and 17.5±5.0%, respectively. For the same compound, the “pre-freeze infectivity in vitro, two-step vs one-step DMSO addition” value in data set [2] (setting [4]) is reported as “significantly increased”. The compound further returned an in vitro infectivity in data set [2] (pre-freeze, 50% DMSO, 5 min incubation, 20% bleach condition, percent of control oocysts in PBS) of 38.7±17.0%. Further, the “infectivity (in vitro)” value in data set [2] (pre-freeze, 50% DMSO, after 15 min or longer, 20% bleach condition) stood at 6.4±1.9%. Further, the “Infectivity in animals after thawing” value in data set [3] (Rectangular capillary, 2 weeks oocysts, trehalose 1.6M/0.8M, One-step 50% DMSO, 5 min, dose 10,000) is on record as “No”; in data set [3] (Vitrification cassette, 2-12 weeks oocysts, trehalose 1.6M/0.5M, Two-step 30% DMSO/50% DMSO, 5 min/1 min, dose 30,000), “Yes”; in data set [3] (Vitrification cassette, 6 weeks oocysts, trehalose 1.6M/0.8M, One-step 50% DMSO, 5 min, dose 10,000) it was “No”.
